Laboratory results reported in patent US20190083462A1, “PREVENTION OF NSAID ENTEROPATHY WITH MICROBIOTA-DERIVED TRYPTOPHAN-METABOLITE” (THE TEXAS A&M UNIVERSITY SYSTEM, priority 2016, published 2019).

Test system: fecal microbiota
Experiment: Inferred metagenome of the fecal microbiota (PICRUSt, SIMPER)
Type: in vivo, mice
Settings: for mean % abundance: day 7 feces
Description: Eight- to 10-week-old specific-pathogen-free C57BL/6J mice were purchased and allowed to acclimate for 2 weeks. Mice were fed standardized laboratory rodent diet and sterile water ad libitum. […] Mice were then rehoused on the basis of treatment group assignment, with 5 animals/group-cage. To induce NSAID enteropathy, mice in group 1 were gavaged once daily with indomethacin (5 mg/kg; for 7 days; Sigma Aldrich, St. Louis, Mo.) dissolved in dimethylysulfoxide (DMSO) (Sigma Aldrich, St. Louis, Mo.) and further diluted in phosphate buffered saline (PBS). […] Sigma Aldrich, St. Louis, Mo.) dissolved in sterile water warmed to 55° C. […] All mice were gavaged with equal volumes (200 μL) and equal concentrations of DMSO (0.001%). Feces were collected daily by placing individual animals in sterile plastic cups that were RNase- and DNase-free until they passed feces. The mice were immediately returned to their home cages and the feces immediately flash frozen at -80° C. All animals were euthanized via CO2 asphyxiation on day 8 (i.e., after 7 days of treatment). […] Life Technologies, Carlsbad, Calif.), homogenized, and prepared as a single cell suspension for flow cytometric analysis as previously described (Wang […]. Measuring bacterial load and immune responses in mice infected with Listeria monocytogenes. Journal of Visualized Experiments: JoVE 2011). The software Phylogenetic Investigation of Communities by Reconstruction of Unobserved States (PICRUSt) was used to predict the metagenome ([…], Knights […] Thurber R L, Knight R, et al. Predictive functional profiling of microbial communities using 16S rRNA marker gene sequences. Nature Biotechnology 2013; 31:814-21). Sequencing data were prepared as described above, but sequences were then clustered into OTUs using a closed-reference OTU picking protocol at the 97% sequencing identity level [http://qiime.org/scripts/pick_closed_reference_otus.html]. The resulting OTU table was normalized by the expected copy number(s) of the 16s rRNA gene in each OTU. PICRUSt was then used to predict the metagenome [https://picrust.github.io/picrust/tutorials/metagenome_prediction.html#metagenome-prediction-tutorial]. Each sample was rarefied to an even sequencing depth to adjust for uneven sequencing depth prior to further analysis. Differences in the metagenomes among the groups were investigated by visual assessment of clustering on PCA and by analysis of similarity (ANOSIM) calculated on Bray Curtis dissimilarity metric.

[1] = Unclassified, Metabolism, Energy metabolism
[2] = Unclassified, Metabolism, Others

Structure (SMILES): COc1ccc2c(c1)c(CC(=O)O)c(C)n2C(=O)c1ccc(Cl)cc1 [NSAID, indomethacin]
- vs. Control Direction (Alanine, aspartate and glutamate metabolism): ↓
- vs. Control Direction (Amino Acid related enzymes): ↑
- vs. Control Direction (Carbohydrate Metabolism, Citrate cycle (TCA cycle)): ↑
- vs. Control Direction (Cell Motility, Bacterial chemotaxis): ↑
- vs. Control Direction (Cell Motility, Bacterial motility proteins): ↑
- vs. Control Direction (Cell Motility, Flagellar assembly): ↑
- vs. Control Direction (Cellular Processes and Signalling, Sporulation): ↑
- mean % abundance (Cellular Processes, Cell Motility, Bacterial chemotaxis): 1.30%
- mean % abundance (Cellular Processes, Cell Motility, Bacterial motility proteins): 0.81%
- mean % abundance (Cellular Processes, Cell Motility, Flagellar assembly): 0.91%
- vs. Control Direction (Chaperones and folding catalysts): ↓
- vs. Control Direction (Energy Metabolism, Carbon fixation pathways in prokaryotes): ↓
- vs. Control Direction (Energy Metabolism, Oxidative phosphorylation): ↑
- mean % abundance (Environmental Information Processing, Membrane Transport, ABC transporters): 1.71%
- mean % abundance (Environmental Information Processing, Membrane Transport, Phosphotransferase system (PTS)): 0.18%
- mean % abundance (Environmental Information Processing, Membrane Transport, Transporters): 3.82%
- mean % abundance (Environmental Information Processing, Signal Transduction, Two-component system): 0.20%
- vs. Control Direction (Folate biosynthesis): ↑
- mean % abundance (Genetic Information Processing, Folding, Sorting and Degradation, Chaperones and folding catalysts): 0.61%
- mean % abundance (Genetic Information Processing, Replication and Repair DNA repair and recombination proteins): 3.12%
- mean % abundance (Genetic Information Processing, Replication and Repair, DNA replication proteins): 0.50%
- mean % abundance (Genetic Information Processing, Replication and Repair, Homologous recombination): 2.12%
- mean % abundance (Genetic Information Processing, Transcription, Transcription factors): 0.31%
- mean % abundance (Genetic Information Processing, Translation Ribosome Biogenesis): 0.70%
- mean % abundance (Genetic Information Processing, Translation, Ribosome): 2.94%
- vs. Control Direction (Lipopolysaccharide biosynthesis): ↑
- vs. Control Direction (Lipopolysaccharide biosynthesis proteins): ↑
- vs. Control Direction (Membrane Transport, ABC transporters): ↓
- vs. Control Direction (Membrane Transport, Phosphotransferase system (PTS)): ↓
- vs. Control Direction (Membrane Transport, Transporters): ↓
- vs. Control Direction (Membrane and intracellular structural molecules): ↓
- mean % abundance (Metabolism, Amino Acid Metabolism, Alanine, aspartate and glutamate metabolism): 1.14%
- mean % abundance (Metabolism, Amino Acid Metabolism, Amino Acid related enzymes): 1.65%
- mean % abundance (Metabolism, Carbohydrate Metabolism, Citrate cycle (TCA cycle)): 1.25%
- mean % abundance (Metabolism, Energy Metabolism, Carbon fixation pathways in prokaryotes): 0.40%
- mean % abundance (Metabolism, Energy Metabolism, Oxidative phosphorylation): 1.65%
- mean % abundance (Metabolism, Glycan Biosynthesis and Metabolism, Lipopolysaccharide biosynthesis proteins): 1.48%
- mean % abundance (Metabolism, Glycan Biosynthesis and Metabolism, Lipopolysaccharide biosynthesis): 1.55%
- mean % abundance (Metabolism, Glycan Biosynthesis and Metabolism, Other glycan degradation): 1.27%
- mean % abundance (Metabolism, Metabolism of Cofactors and Vitamins, Folate biosynthesis): 1.66%
- mean % abundance (Metabolism, Metabolism of Cofactors and Vitamins, One carbon pool by folate): 0.49%
- mean % abundance (Metabolism, Metabolism of Cofactors and Vitamins, Porphyrin and chlorophyll metabolism): 2.42%
- mean % abundance (Metabolism, Nucleotide Metabolism, Purine metabolism): 0.90%
- mean % abundance (Metabolism, Nucleotide Metabolism, Pyrimidine metabolism): 2.24%
- vs. Control Direction (Nucleotide Metabolism, Purine metabolism): ↓
- vs. Control Direction (Nucleotide Metabolism, Pyrimidine metabolism): ↑
- vs. Control Direction (One carbon pool by folate): ↓
- vs. Control Direction (Other glycan degradation): ↑
- vs. Control Direction (Pores ion channels): ↑
- vs. Control Direction (Porphyrin and chlorophyll metabolism): ↑
- vs. Control Direction (Replication and Repair DNA repair and recombination proteins): ↑
- vs. Control Direction (Replication and Repair, DNA replication proteins): ↓
- vs. Control Direction (Replication and Repair, Homologous recombination): ↑
- vs. Control Direction (Signal Transduction, Two-component system): ↓
- vs. Control Direction (Transcription, Transcription factors): ↓
- vs. Control Direction (Translation Ribosome Biogenesis): ↓
- vs. Control Direction (Translation, Ribosome): ↑
- mean % abundance (Unclassified, Cellular Processes and Signaling, Pores ion channels): 3.54%
- mean % abundance (Unclassified, Cellular Processes and Signalling, Membrane and intracellular structural molecules): 0.17%
- mean % abundance (Unclassified, Cellular Processes and Signalling, Sporulation): 1.00%
- vs. Control Direction [1]: ↑
- mean % abundance [1]: 1.25%
- vs. Control Direction [2]: ↑
- mean % abundance [2]: 0.84%
